Key:
[1] = target: T1, human DGAT1 (Homo sapiens, UniProt O75907); assay: DGAT Scintillation Proximity Assay (SPA) with membranes of insect cells expressing human flagtag DGAT1; type: biochemical; settings: read-out: hDGAT1 IC50
T1 construct: made in house; host or cells: insect cells (sf9, sf21 or High Five) infected with baculovirus; total cell membranes
T1 sequence (O75907 1-488): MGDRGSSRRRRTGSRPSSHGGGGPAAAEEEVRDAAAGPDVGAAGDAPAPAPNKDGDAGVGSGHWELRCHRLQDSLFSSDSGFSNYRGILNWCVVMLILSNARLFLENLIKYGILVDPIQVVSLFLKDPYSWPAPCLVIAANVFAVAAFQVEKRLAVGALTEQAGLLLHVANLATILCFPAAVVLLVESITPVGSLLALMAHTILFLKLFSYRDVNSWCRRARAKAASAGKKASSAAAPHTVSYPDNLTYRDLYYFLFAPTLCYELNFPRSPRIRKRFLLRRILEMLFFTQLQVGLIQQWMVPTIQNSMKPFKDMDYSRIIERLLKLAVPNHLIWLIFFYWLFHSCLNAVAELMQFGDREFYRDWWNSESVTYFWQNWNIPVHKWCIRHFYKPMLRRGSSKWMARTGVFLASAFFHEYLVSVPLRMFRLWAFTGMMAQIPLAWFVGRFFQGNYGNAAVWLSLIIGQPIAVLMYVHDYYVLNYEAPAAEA
Summary of the method: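 Membranes (0.2 μg/well) from insect cells expressing human flag-tagged DGAT1 incubated with 10 μM compound and 200 μM dioleoyl glycerol substrate; mercuric chloride as inhibition control. Reaction stopped with WGA SPA beads in mercuric chloride, overnight bead coupling, then scintillation proximity signal read.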

## Cc1nc(N)c2c(n1)OC(C)(C)C(c1ccc([C@H]3CC[C@H](CC(=O)O)CC3)c(Cl)c1)=N2 [Example 6]
[1]
  IC50: < 10 nM
other
  melting point: > 230 °C

## Cc1nc(N)c2c(n1)OC(C)(C)C(c1ccc([C@H]3CC[C@H](CC(=O)O)CC3)c(N3CCCC3=O)c1)=N2 [Example 6-4]
[1]
  IC50: > 100 nM
other
  melting point: 177 °C (dec.)

## Cc1ccc(C2=Nc3c(N)ncnc3OC2)cc1 [Example 1-4]
[1]
  IC50: > 100 nM
other
  melting point: 217 to 219 °C

## CC1(C)Oc2ncnc(N)c2N=C1c1ccc([C@H]2CC[C@H](CCN3CCN(Cc4ccccc4)CC3)CC2)cc1 [Example 2-88]
[1]
  IC50: > 100 nM
other
  melting point: 175 to 176 °C

## CCCN(C)C(=O)CC[C@H]1CC[C@H](c2ccc(C3=Nc4c(N)ncnc4OC3(C)C)cc2)CC1 [Example 2-190]
[1]
  IC50: 10 to 100 nM
other
  melting point: 210 to 212 °C

## Nc1ncnc2c1NC(c1ccc(Cl)cc1Cl)CO2 (centres unmarked) [Example 1-37]
[1]
  IC50: > 100 nM
other
  melting point: > 220 °C

## CC(NC(=O)[C@H]1CC[C@H](c2ccc(C3=Nc4c(N)ncnc4OC3(C)C)cc2)CC1)C(=O)O (some centres unmarked) [Example 2-211]
[1]
  IC50: 10 to 100 nM
other
  melting point: > 250 °C

## CN1CCN(C(=O)[C@H]2CC[C@H](c3ccc(C4=Nc5c(N)ncnc5OC4(C)C)cc3)CC2)CC1 [Example 2-238]
[1]
  IC50: > 100 nM
other
  melting point: 190 to 191 °C

## COc1ccc(C2=Nc3c(N)ncnc3OC2)cc1 [Example 1-12]
[1]
  IC50: > 100 nM
other
  melting point: 191 to 193 °C

## Cc1ccc(S(=O)(=O)NC[C@H]2CC[C@H](c3ccc(C4=Nc5c(N)ncnc5OC4(C)C)cc3)CC2)cc1 [Example 2-129]
[1]
  IC50: 10 to 100 nM
other
  melting point: 206 to 207 °C

## Cc1nc(N)c2c(n1)OC(C)(C)C(c1ccc([C@H]3CC[C@H](CCC(=O)N4C[C@@H](O)[C@@H](O)C4)CC3)cc1)=N2 [Example 2-194]
[1]
  IC50: 10 to 100 nM
other
  melting point: 230 to 231 °C

## CC1(C)Oc2ncnc(N)c2N=C1c1ccc([C@H]2CC[C@H](CCNC(=O)CO)CC2)cc1 [Example 2-176]
[1]
  IC50: 10 to 100 nM
other
  melting point: 196 to 198 °C

## CC1(C)Oc2ncnc(N)c2N=C1c1ccc([C@H]2CC[C@H](CN3CCC(Cc4ccccc4)CC3)CC2)cc1 [Example 2-228]
[1]
  IC50: > 100 nM
other
  melting point: 119 to 120 °C

## CC1(C)Oc2ncnc(N)c2N=C1c1ccc(C2(C)CCC(CC(=O)O)CC2)cc1 (centres unmarked) [Example 2-67]
[1]
  IC50: 10 to 100 nM
other
  melting point: > 250 °C

## CC1(C)Oc2ncnc(N)c2N=C1c1ccc([C@H]2CC[C@H](C(=O)NC(CO)C(=O)O)CC2)cc1 (some centres unmarked) [Example 2-213]
[1]
  IC50: 10 to 100 nM
other
  melting point: > 250 °C

## CC1(C)Oc2ncnc(N)c2NC1(C)c1ccc(C2CCCCC2)cc1 (centres unmarked) [Example 2-75]
[1]
  IC50: > 100 nM
other
  melting point: 244 to 245 °C

## CC1(C)Oc2ncnc(N)c2N=C1c1ccc(-c2cccnc2)cc1 [Example 2-29]
[1]
  IC50: > 100 nM
other
  melting point: 231 to 232 °C

## Cc1nc(N)c2c(n1)OC(C)(C)C(c1ccc([C@H]3CC[C@H](CCc4nc(=O)o[nH]4)CC3)cc1)=N2 [Example 2-195]
[1]
  IC50: 10 to 100 nM
other
  melting point: 250 °C (dec.)

## CC1(C)Oc2ncnc(N)c2N=C1c1ccc([C@H]2CC[C@H](C(=O)NCC(=O)O)CC2)cc1 [Example 2-205]
[1]
  IC50: 10 to 100 nM
other
  melting point: > 250 °C

## Cc1nc(N)c2c(n1)OC(C)(C)C(c1ccc([C@H]3CC[C@H](CNC(=O)CO)CC3)cc1)=N2 [Example 2-138]
[1]
  IC50: 10 to 100 nM
other
  melting point: 235 to 238 °C

## Cc1nc(N)c2c(n1)OC(C)(C)C(c1ccc([C@H]3CC[C@H](CN4CC(=O)NC4=O)CC3)cc1)=N2 [Example 2-159]
[1]
  IC50: 10 to 100 nM
other
  melting point: 148 °C (dec.)

## CC1(C)Oc2ncnc(N)c2N=C1c1ccc([C@H]2CC[C@H](C(=O)N3CCOCC3)CC2)cc1 [Example 2-239]
[1]
  IC50: > 100 nM
other
  melting point: 233 to 235 °C

## CN(CC(=O)O)C(=O)[C@H]1CC[C@H](c2ccc(C3=Nc4c(N)ncnc4OC3(C)C)cc2)CC1 [Example 2-214]
[1]
  IC50: < 10 nM
other
  melting point: > 250 °C

## CC(=O)N[C@H]1CC[C@H](c2ccc(C3=Nc4c(N)ncnc4OC3(C)C)cc2)CC1 [Example 2-209]
[1]
  IC50: 10 to 100 nM
other
  melting point: > 250 °C

## CC1(C)Oc2ncnc(N)c2N=C1c1ccc([C@H]2CC[C@H](CCNC(=O)[C@@H]3CCCN3)CC2)cc1 [Example 2-182]
[1]
  IC50: 10 to 100 nM
other
  melting point: 167 to 169 °C

## CN(CCO)C(=O)CC[C@H]1CC[C@H](c2ccc(C3=Nc4c(N)ncnc4OC3(C)C)cc2)CC1 [Example 2-179]
[1]
  IC50: 10 to 100 nM
other
  melting point: 168 to 170 °C

## CC1(C)Oc2ncnc(N)c2N=C1c1ccc([C@H]2CC[C@H](CC(=O)N3CCCC3)CC2)cc1 [Example 2-94]
[1]
  IC50: 10 to 100 nM
other
  melting point: 232 to 233 °C

## CC(=O)NC[C@H]1CC[C@H](c2ccc(C3=Nc4c(N)ncnc4OC3(C)C)cc2)CC1 [Example 2-128]
[1]
  IC50: 10 to 100 nM
other
  melting point: 253 to 254 °C

## CC1(C)Oc2ncnc(N)c2N=C1c1ccc([C@H]2CC[C@H](Cn3ccnc3)CC2)cc1 [Example 2-108]
[1]
  IC50: 10 to 100 nM
other
  melting point: 202 to 203 °C

## CC(O)[C@H]1CC[C@H](c2ccc(C3=Nc4c(N)ncnc4OC3(C)C)cc2)CC1 (some centres unmarked) [Example 2-233]
[1]
  IC50: > 100 nM
other
  melting point: 224 to 229 °C

## Cc1nc(N)c2c(n1)OC(C)(C)C(c1ccc([C@H]3CC[C@H](C(=O)N4C[C@@H](O)[C@@H](O)C4)CC3)cc1)=N2 [Example 2-258]
[1]
  IC50: 10 to 100 nM
other
  melting point: > 250 °C

## CC1(C)Oc2ncnc(N)c2N=C1c1ccc([C@H]2CC[C@H](C(=O)N3C[C@@H](O)[C@@H](O)C3)CC2)cc1 [Example 2-250]
[1]
  IC50: 10 to 100 nM
other
  melting point: 220 to 240 °C

## CC1(C)Oc2ncnc(N)c2N=C1c1ccc([C@H]2CC[C@H](C(=O)N3CCCC3C(=O)O)CC2)cc1 (some centres unmarked) [Example 2-208]
[1]
  IC50: 10 to 100 nM
other
  melting point: 193 to 194 °C

## CC1(C)Oc2ncnc(N)c2N=C1c1ccc([C@H]2CC[C@H](CC(=O)N3CCNCC3)CC2)cc1.Cl.Cl [Example 2-111]
[1]
  IC50: 10 to 100 nM
other
  melting point: > 250 °C

## CC(C)(O)C[C@H]1CC[C@H](c2ccc(C3=Nc4c(N)ncnc4OC3(C)C)cc2)CC1 [Example 2-78]
[1]
  IC50: 10 to 100 nM
other
  melting point: 185 to 187 °C

## CC1(C)Oc2ncnc(N)c2N=C1c1ccc([C@H]2CC[C@H](Cc3cnc(C(C)(C)C)[nH]3)CC2)cc1 [Example 2-119]
[1]
  IC50: 10 to 100 nM
other
  melting point: > 250 °C

## Cc1csc(NC[C@H]2CC[C@H](c3ccc(C4=Nc5c(N)ncnc5OC4(C)C)cc3)CC2)n1 [Example 2-127]
[1]
  IC50: 10 to 100 nM
other
  melting point: 228 to 230 °C

## Cc1nc(N)c2c(n1)OC(C)(C)C(c1ccc([C@H]3CC[C@H](C(=O)NS(C)(=O)=O)CC3)cc1)=N2 [Example 2-256]
[1]
  IC50: 10 to 100 nM
other
  melting point: 172 to 175 °C

## Nc1ncnc2c1N=C(c1ccc(F)cc1)CO2 [Example 1-2]
[1]
  IC50: > 100 nM
other
  melting point: > 220 °C

## CC1(C)Oc2ncnc(N)c2N=C1c1ccc([C@H]2CC[C@H](CCC(=O)N3CCC[C@H]3CO)CC2)cc1 [Example 2-178]
[1]
  IC50: 10 to 100 nM
other
  melting point: 143 to 160 °C

## CC1(C)Oc2ncnc(N)c2N=C1c1ccc([C@H]2CC[C@H](CN[C@H]3CC[C@H](O)CC3)CC2)cc1 [Example 2-116]
[1]
  IC50: 10 to 100 nM
other
  melting point: > 250 °C

## CC1(C)Oc2ncnc(N)c2N=C1c1ccc([C@H]2CC[C@H](C(N)=O)CC2)cc1 [Example 2-204]
[1]
  IC50: 10 to 100 nM
other
  melting point: > 250 °C

## CC1(C)Oc2ncnc(N)c2N=C1c1ccc([C@H]2CC[C@H](CN3CCCCC3)CC2)cc1 [Example 2-224]
[1]
  IC50: > 100 nM
other
  melting point: 169 to 171 °C

## CC1(C)Oc2ncnc(N)c2N=C1c1ccc([C@H]2CC[C@H](CSCC(=O)O)CC2)cc1 [Example 2-253]
[1]
  IC50: < 10 nM
other
  melting point: 248 °C (dec.)

## Cc1nc(N)c2c(n1)OC(C)(C)C(c1ccc([C@H]3CC[C@H](CSCC(=O)O)CC3)cc1)=N2 [Example 2-259]
[1]
  IC50: 10 to 100 nM
other
  melting point: 271 to 277 °C

## Nc1ncnc2c1N=C(c1ccc(C(F)(F)F)cc1)CO2 [Example 1-8]
[1]
  IC50: > 100 nM
other
  melting point: > 220 °C

Reference: US7244727B2, “Fused bicyclic nitrogen-containing heterocycles” (Japan Tobacco Inc., priority 2002, dated 2007)
